# According to patent US20140348865A1, “[…] ON AN HIV-1 V1V2 SITE-OF-VULNERABILITY” (The United States of America, as represented by the …, priority 2011, published 2014):
# What was measured:
# [1] = system: PG9; assay: ELISA of recombinant gp120 monomers with PG9; assay type: binding, human; settings: gp120 monomer of the named strain
# [2] = system: Fab PG9; assay: Saturation transfer difference NMR of glycan binding to PG9; design: species or system human; settings: for interaction with PG9 by STD NMR: 1.5 mM glycan, 15 μM Fab PG9
# From the text: FIGS. 6A-6B illustrate two glycans and a strand comprise a V1V2 site-of-vulnerability. Glycan, electrostatic, and sequence-independent interactions allow PG9 to recognize a glycopeptide site on V1V2. A, Site characteristics in CAP45 strain of HIV-1. Glycans 160 and 156 (173 with ZM109) are highlighted in light grey, and strands B and C are highlighted in dark grey, with the rest of V1V2 in semi-transparent white. The interactive surface of V1V2 with PG9 is shown, colored according the local electrostatic potential as in FIG. 5B. The contribution of each structural element to that surface is provided as a percentage of the total. […] C, Langmuir binding curve used to obtain the KD a function of glycan concentration (A signals correspond to N-acetyl protons, which are shown in the boxed area of the upper panel). D, Stacked STD NMR spectra as a function of Man5GlcNAc2-Asn concentration.
# FIG. 25 illustrates binding of GlcNAc2 to PG9 by NMR. STD (lower trace) and reference (upper trace) NMR spectra of 1.5 mM GlcNAc2 in the presence of 15 μM Fab PG9.
# FIG. 26 illustrates binding of mannopentaose to PG9 by NMR. STD (lower trace) and reference (upper trace) NMR spectra of 1.5 mM mannopentaose (structure shown above) in the presence of 15 μM Fab PG9.
# All NMR experiments were carried out at 298 K on Bruker avance 600 or avance 500 instruments equipped with a triple resonance cryo-probe incorporating gradients in z-axis. 1D STD spectra were acquired by selectively irradiating at −1 ppm and +40 ppm as on- and off-resonance frequencies, respectively, using a train of 50 ms Gaussian-shaped radio frequency pulses separated by 1 ms delays and an optimized power level of 57 db. During NMR experiments water suppression was achieved by binomial 3-9-19 pulse sequence and protein resonances were suppressed by applying 10 ms T1ρ filter. Samples were prepared in 20 mM sodium phosphate buffer containing 50 mM sodium chloride at pH 6.8. The NMR data were processed and analyzed by using TOPSPIN 2.1. […]
Compound,PG9 recognition in the gp120 monomer context [1],further results
"16055: gp120 monomer of HIV-1 Clade C strain 16055, SEQ ID NO: 6 [compound 16055]",retained PG9 recognition,–
CC(=O)N[C@H]1[C@H](O[C@H]2[C@H](O)[C@@H](NC(C)=O)C(O)O[C@@H]2CO)O[C@H](CO)[C@@H](O)[C@@H]1O (some centres unmarked) [(N-acetylglucosamine)2],–,interaction with PG9 by STD NMR [2]: not observed
CC(=O)N[C@@H]1[C@@H](O)[C@H](O[C@@H]2O[C@H](CO)[C@@H](O[C@@H]3O[C@H](CO[C@H]4O[C@H](CO[C@H]5O[C@H](CO)[C@@H](O)[C@H](O)[C@@H]5O)[C@@H](O)[C@H](O[C@H]5O[C@H](CO)[C@@H](O)[C@H](O)[C@@H]5O)[C@@H]4O)[C@@H](O)[C@H](O[C@H]4O[C@H](CO)[C@@H](O)[C@H](O)[C@@H]4O)[C@@H]3O)[C@H](O)[C@H]2NC(C)=O)[C@@H](CO)O[C@H]1NC(=O)C[C@H](N)C(=O)O [Asn-(N-actylglucosamine)2(mannose)5],–,"Kd ([2]; titration series, Langmuir binding curve, read-out: affinity for PG9): 1.6 ± 0.9 mM"
CC(=O)N[C@H]1[C@H](O[C@H]2[C@H](O)[C@@H](NC(C)=O)C(O)O[C@@H]2CO)O[C@H](CO)[C@@H](O[C@@H]2O[C@H](CO[C@H]3O[C@H](CO[C@H]4O[C@H](CO)[C@@H](O)[C@H](O)[C@@H]4O)[C@@H](O)[C@H](O[C@H]4O[C@H](CO)[C@@H](O)[C@H](O)[C@@H]4O)[C@@H]3O)[C@@H](O)[C@H](O[C@H]3O[C@H](CO)[C@@H](O)[C@H](O)[C@@H]3O)[C@@H]2O)[C@@H]1O (some centres unmarked) [oligomannose-5],–,interaction with PG9 by STD NMR [2]: weak interactions
"CAP45: gp120 monomer of HIV-1 Clade C strain CAP45, SEQ ID NO: 3",retained PG9 recognition,–
"TRJO: gp120 monomer of HIV-1 Clade B strain TRJO, SEQ ID NO: 7",retained PG9 recognition,–
"ZM53: gp120 monomer of HIV-1 Clade C strain ZM53, SEQ ID NO: 4",retained PG9 recognition,–
"ZM109: gp120 monomer of HIV-1 Clade C strain ZM109, SEQ ID NO: 2",retained PG9 recognition,–
